Laboratory results from article PMC3858179 (Journal of medicinal chemistry, 2008).
Read-outs that look alike come from different tables or passages of the source.

What was measured:
[1] = test system: RPMI-8226; conditions: read-out: GI50 RPMI-8226; Leukemia; cited from earlier work
[2] = test system: human CCRF-CEM leukemia cells; conditions: read-out: EC50 growth of human CCRF-CEM leukemia cells in culture; cited from earlier work
[3] = test system: NCI-H460; conditions: read-out: GI50 NCI-H460; Nonsmall Cell Lung Cancer; cited from earlier work
[4] = test system: MCF-7; conditions: read-out: GI50 MCF-7; Breast Cancer; cited from earlier work
[5] = test system: HT29; conditions: read-out: GI50 HT29; Colon Cancer; cited from earlier work
[6] = test system: CCRF-CEM; conditions: read-out: GI50 CCRF-CEM; Leukemia; cited from earlier work
[7] = test system: ACHN; conditions: read-out: GI50 ACHN; Renal Cancer; cited from earlier work
[8] = test system: MOLT-4; conditions: read-out: GI50 MOLT-4; Leukemia; cited from earlier work
[9] = test system: 60 tumor cell lines; conditions: in 11 of the 60 tumor cell lines evaluated; cited from earlier work
[10] = test system: HL-60 × (TB); conditions: read-out: GI50 HL-60 × (TB); Leukemia; cited from earlier work
[11] = test system: HCT 15; conditions: read-out: GI50 HCT 15; Colon Cancer; cited from earlier work
[12] = test system: folyl poly-γ-glutamate synthetase (FPGS); conditions: cited from earlier work
[13] = test system: U251; conditions: read-out: GI50 U251; Central Nervous System Cancer; cited from earlier work
[14] = test system: K-562; conditions: read-out: GI50 K-562; Leukemia; cited from earlier work
[15] = test system: PC-3; conditions: read-out: GI50 PC-3; Prostrate Cancer; cited from earlier work
[16] = test system: CAKI-1; conditions: read-out: GI50 CAKI-1; Renal Cancer; cited from earlier work
[17] = test system: SF268; conditions: read-out: GI50 SF268; Central Nervous System Cancer; cited from earlier work
[18] = test system: SW-620; conditions: read-out: GI50 SW-620; Colon Cancer; cited from earlier work
[19] = test system: ACHN; assay: NCI tumor cell growth inhibition, ACHN; type: cell-based; conditions: Homo sapiens, read-out: GI50 ACHN
[20] = target: human TS (Homo sapiens, UniProt P04818); assay: Inhibition of isolated human TS; type: biochemical
[21] = target: T1, T. gondii DHFR (Toxoplasma gondii, UniProt Q07422); type: biochemical; conditions: 20 compounds jointly assayed, by both protocols (Table 1 and Table 2 conditions)
T1 sequence (Q07422 1-610): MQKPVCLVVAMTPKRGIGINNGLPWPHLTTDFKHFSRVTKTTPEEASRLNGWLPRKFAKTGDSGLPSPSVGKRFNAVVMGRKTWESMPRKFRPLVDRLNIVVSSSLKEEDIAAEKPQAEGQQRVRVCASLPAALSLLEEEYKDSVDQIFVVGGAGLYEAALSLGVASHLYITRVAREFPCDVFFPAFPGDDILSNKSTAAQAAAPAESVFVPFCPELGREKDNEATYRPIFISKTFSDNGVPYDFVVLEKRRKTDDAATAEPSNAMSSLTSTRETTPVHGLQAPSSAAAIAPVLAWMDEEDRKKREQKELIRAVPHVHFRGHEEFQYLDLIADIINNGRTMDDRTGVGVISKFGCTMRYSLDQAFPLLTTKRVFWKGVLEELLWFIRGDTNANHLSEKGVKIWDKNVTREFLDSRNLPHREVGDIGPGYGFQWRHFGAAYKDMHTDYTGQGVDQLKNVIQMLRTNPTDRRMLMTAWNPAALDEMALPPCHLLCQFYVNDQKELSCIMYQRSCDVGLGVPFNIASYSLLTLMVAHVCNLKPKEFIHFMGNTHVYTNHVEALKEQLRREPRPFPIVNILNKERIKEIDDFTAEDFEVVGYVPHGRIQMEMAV

[22] = test system: HL-60 × (TB); assay: NCI tumor cell growth inhibition, HL-60 ×; type: cell-based; conditions: Homo sapiens, HL-60, read-out: GI50 HL-60 × (TB)
[23] = test system: MOLT-4; assay: NCI tumor cell growth inhibition, MOLT-4; type: cell-based; conditions: Homo sapiens, MOLT-4, read-out: GI50 MOLT-4
[24] = test system: CAKI-1; assay: NCI tumor cell growth inhibition, CAKI-1; type: cell-based; conditions: Homo sapiens, CAKI-1, read-out: GI50 CAKI-1
[25] = test system: SW-620; assay: NCI tumor cell growth inhibition, SW-620; type: cell-based; conditions: Homo sapiens, SW-620, read-out: GI50 SW-620
[26] = target: P. carinii DHFR (Pneumocystis carinii, UniProt P16184); assay: biochemical
[27] = test system: U251; assay: NCI tumor cell growth inhibition, U251; type: cell-based; conditions: Homo sapiens, U-251, read-out: GI50 U251
[28] = test system: NCI-H460; assay: NCI tumor cell growth inhibition, NCI-H460; type: cell-based; conditions: Homo sapiens, NCI-H460, read-out: GI50 NCI-H460
[29] = test system: CCRF-CEM; assay: NCI tumor cell growth inhibition, CCRF-CEM; type: cell-based; conditions: Homo sapiens, read-out: GI50 CCRF-CEM
[30] = test system: 60 tumor cell lines; assay: NCI in vitro preclinical antitumor screening, 60 tumor cell lines; type: cell-based
[31] = target: rat liver DHFR (Rattus norvegicus, UniProt Q920D2); assay: Inhibition of isolated rat liver DHFR; type: biochemical
[32] = test system: SF268; assay: NCI tumor cell growth inhibition, SF268; type: cell-based; conditions: Homo sapiens, SF-268, read-out: GI50 SF268
[33] = test system: LOX IMVI; assay: NCI tumor cell growth inhibition, LOX IMVI; type: cell-based; conditions: Homo sapiens, read-out: GI50 LOX IMVI
[34] = test system: HT29; assay: NCI tumor cell growth inhibition, HT29; type: cell-based; conditions: Homo sapiens, HT-29, read-out: GI50 HT29
[35] = test system: K-562; assay: NCI tumor cell growth inhibition, K-562; type: cell-based; conditions: Homo sapiens, K562, read-out: GI50 K-562
[36] = target: T2, human DHFR (Homo sapiens, UniProt P00374); assay: Inhibition of isolated human DHFR; type: biochemical
T2 sequence (P00374 1-187): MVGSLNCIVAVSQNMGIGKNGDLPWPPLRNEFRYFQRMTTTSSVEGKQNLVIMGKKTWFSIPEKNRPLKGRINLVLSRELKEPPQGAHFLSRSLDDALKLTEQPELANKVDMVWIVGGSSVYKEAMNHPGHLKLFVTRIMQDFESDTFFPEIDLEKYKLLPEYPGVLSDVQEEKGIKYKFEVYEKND

[37] = test system: HCT 15; assay: NCI tumor cell growth inhibition, HCT 15; type: cell-based; conditions: Homo sapiens, HCT-15, read-out: GI50 HCT 15
[38] = test system: RPMI-8226; assay: NCI tumor cell growth inhibition, RPMI-8226; type: cell-based; conditions: Homo sapiens, RPMI-8226, read-out: GI50 RPMI-8226
[39] = target: M. avium DHFR (Mycobacterium avium, UniProt O30463); assay: Inhibition of isolated M. avium DHFR; type: biochemical
Chain of M. avium DHFR (O30463 1-181): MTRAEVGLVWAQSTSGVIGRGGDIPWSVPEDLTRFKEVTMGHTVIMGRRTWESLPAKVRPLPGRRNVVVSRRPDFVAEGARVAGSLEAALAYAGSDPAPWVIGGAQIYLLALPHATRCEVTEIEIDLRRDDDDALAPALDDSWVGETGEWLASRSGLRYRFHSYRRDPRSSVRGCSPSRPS

Chain of human TS (P04818 whole entry): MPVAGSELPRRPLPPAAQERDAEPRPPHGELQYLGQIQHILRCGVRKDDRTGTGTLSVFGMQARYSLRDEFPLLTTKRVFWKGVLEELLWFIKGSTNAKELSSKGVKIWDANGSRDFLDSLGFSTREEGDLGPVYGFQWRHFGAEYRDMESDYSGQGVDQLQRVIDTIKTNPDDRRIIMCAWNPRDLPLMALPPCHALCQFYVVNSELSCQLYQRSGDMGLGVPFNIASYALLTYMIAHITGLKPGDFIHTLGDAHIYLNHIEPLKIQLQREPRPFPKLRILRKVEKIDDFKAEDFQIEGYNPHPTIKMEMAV
Chain of P. carinii DHFR (P16184 whole entry): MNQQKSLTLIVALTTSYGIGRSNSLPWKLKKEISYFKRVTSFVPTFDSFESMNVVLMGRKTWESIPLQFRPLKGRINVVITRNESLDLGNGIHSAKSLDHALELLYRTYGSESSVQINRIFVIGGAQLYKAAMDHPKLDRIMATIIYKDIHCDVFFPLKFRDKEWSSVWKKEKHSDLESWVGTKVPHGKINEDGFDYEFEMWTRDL
Chain of rat liver DHFR (Q920D2 whole entry): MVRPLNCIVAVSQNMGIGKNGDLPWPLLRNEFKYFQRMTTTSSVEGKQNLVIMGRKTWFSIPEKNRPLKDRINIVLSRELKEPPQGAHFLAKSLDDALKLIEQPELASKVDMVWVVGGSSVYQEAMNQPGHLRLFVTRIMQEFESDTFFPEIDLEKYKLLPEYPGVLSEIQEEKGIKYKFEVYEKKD

Cc1c(Sc2ccc(C(=O)N[C@@H](CCC(=O)O)C(=O)O)cc2)[nH]c2nc(N)nc(N)c12 [Compound 1]
GI50 [1]: < 10 nM | EC50 [2]: 190 nM | GI50 [3]: 631 nM | GI50 [4]: > 100000 nM | GI50 [5]: 160 nM | GI50 [6]: 221 nM | GI50 [7]: 24200 nM | GI50 [8]: < 10 nM | GI50 [9]: ≤ 100 nM | GI50 [10]: 43.5 nM | GI50 [11]: 59500 nM | FPGS substrate activity [12]: reasonable | GI50 [13]: 824 nM | GI50 [14]: 29.5 nM | GI50 [15]: 43.6 nM | GI50 [16]: > 100000 nM | GI50 [17]: 74700 nM | GI50 [18]: 124 nM

CC(C)c1c(Sc2ccc(C(=O)N[C@@H](CCC(=O)O)C(=O)O)cc2)[nH]c2nc(N)nc(N)c12 [Compound 4, N-[4-[(2,4-Diamino-5-isopropyl-7H-pyrrolo[2,3-d]pyrimidin-6-yl)sulfanyl]-benzoyl]-L-glutamate]
GI50 [19]: 7390 nM | fold less inhibitory than pemetrexed against hTS [20]: 4 fold | fold less potent than 1 as inhibitor of hTS [20]: 63-74 fold | potency rank against T. gondii DHFR, in words [21]: three most potent compounds | GI50 [22]: 5650 nM | GI50 [23]: 1310 nM | GI50 [24]: 4250 nM | GI50 [25]: 4710 nM | IC50 [26]: 4.8 nM | Selectivity ratio rl/pc ([26]; IC50 rat liver DHFR/IC50 P. carinii DHFR): 38.8 | GI50 [27]: 7240 nM | GI50 [28]: 6450 nM | GI50 [29]: 536 nM | GI50 [30]: < 1000 nM | IC50 [31]: 186 nM | GI50 [32]: 17800 nM | GI50 [33]: 1140 nM | GI50 [34]: 5760 nM | GI50 [35]: 932 nM | IC50 [36]: 90 nM | fold less potent as hDHFR inhibitor compared with MTX [36]: ~4 fold | fold more potent than pemetrexed as hDHFR inhibitor [36]: ~17 fold | inhibition of hDHFR, in words [36]: good inhibitors | GI50 [37]: 34800 nM | GI50 [38]: 7740 nM | IC50 [39]: 0.391 nM | Selectivity ratio rl/ma ([39]; IC50 rat liver DHFR/IC50 M. avium DHFR): 475.7
